# Laboratory results published in patent US12667557B2, “Method for treating EGFR-TKI-resistant non-small cell lung cancer by administration of anti-HER3 antibody-drug conjugate” (priority 2017, dated 2026).
# Experiments:
# [1] = biological target: T1, topoisomerase I (Homo sapiens, UniProt P11387); conditions: Ogitani Y. et al., Clinical Cancer Research, 2016; 22(20):5097-5108; cited from earlier work
# T1 sequence (P11387 1-765): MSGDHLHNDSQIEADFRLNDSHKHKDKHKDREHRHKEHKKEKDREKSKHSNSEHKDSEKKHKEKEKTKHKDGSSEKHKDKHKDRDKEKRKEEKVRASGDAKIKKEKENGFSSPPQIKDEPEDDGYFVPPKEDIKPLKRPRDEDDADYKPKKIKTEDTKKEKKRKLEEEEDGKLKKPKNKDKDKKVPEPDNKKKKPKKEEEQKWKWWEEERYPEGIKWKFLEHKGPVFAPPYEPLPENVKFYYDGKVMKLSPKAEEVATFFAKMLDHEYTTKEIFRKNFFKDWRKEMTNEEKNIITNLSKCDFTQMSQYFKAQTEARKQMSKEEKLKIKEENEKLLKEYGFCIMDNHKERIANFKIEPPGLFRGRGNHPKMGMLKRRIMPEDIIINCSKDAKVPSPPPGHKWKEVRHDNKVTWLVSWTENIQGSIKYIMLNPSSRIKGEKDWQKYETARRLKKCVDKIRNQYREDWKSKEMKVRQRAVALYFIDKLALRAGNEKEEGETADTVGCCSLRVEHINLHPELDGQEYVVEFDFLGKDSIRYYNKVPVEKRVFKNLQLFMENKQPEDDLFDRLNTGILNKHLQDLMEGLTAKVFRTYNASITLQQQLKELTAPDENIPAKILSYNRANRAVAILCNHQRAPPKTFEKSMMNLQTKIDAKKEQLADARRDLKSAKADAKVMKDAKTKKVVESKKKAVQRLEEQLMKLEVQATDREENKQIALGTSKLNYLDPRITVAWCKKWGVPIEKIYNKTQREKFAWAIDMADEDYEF
# [2] = tested on: cell strain PC9AZDR7; experiment: Cell proliferation suppressing activity of osimertinib against cell strain PC9AZDR7; format: cell-based, human; conditions: 1 μM or lower concentrations of osimertinib; 3rd day of treatment
# Description: (§1) Cell strains PC9 and PC9AZDR7 were cultured in RPMI1640 medium (manufactured by Sigma-Aldrich Corp.) containing 10% fetal bovine serum and 1% penicillin-streptomycin B (manufactured by Wako Pure Chemical Industries, Ltd.). PC9AZDR7 was cultured with 100 nM osimertinib added to the medium. After cell strains PC9 and PC9AZDR7 were cultured, the cells were detached by trypsin treatment and then collected. […] Subsequently, 50 μL of each cell suspension was added into each well of SUMILON 96-well plate (manufactured by Sumitomo Bakelite Co., Ltd.) (10,000 cells/well), and culture was carried out. One day after the initiation of culture, osimertinib dilutions, each of which was prepared to have one of various concentrations, or as a negative control, RPMI-1640 medium not containing any drug was added, and culture was carried out. […] The plate was left to stand for 30 minutes under light-shielded conditions. […] The cell proliferation suppressing activity (% of control) of each drug was calculated using the following formula. % of Control=(Average luminescence value in specimen-added wells÷average luminescence value in negative control wells)×100
# [3] = tested on: cell strain PC9AZDR7 transplanted in nude mice; experiment: Antitumor effect of combination of HER3-ADC (1) and osimertinib on cell strain PC9AZDR7 transplanted in nude mice; format: in vivo, nude mice (BALB/cAJcl-nu/nu); conditions: for Estimated tumor volume Average value: HER3-ADC (1) 1 mg/kg i.p. on Day 1, osimertinib 1 mg/kg oral Days 1-5, 8-12, 15-19; for Tumor growth inhibition ratio (%): compared with the control group, HER3-ADC (1) 1 mg/kg i.p., osimertinib 1 mg/kg oral
# Description: Cell strain PC9AZDR7 was cultured in RPMI1640 medium (manufactured by Sigma-Aldrich Corp.) containing 10% fetal bovine serum and 1% penicillin-streptomycin B (manufactured by Wako Pure Chemical Industries, Ltd.) and 100 nM osimertinib. After cell strain PC9AZDR7 was cultured, the cells were detached by trypsin treatment and then collected. […] From the next day of grouping (1st day), drug administration was initiated. […] As a control group, a group not receiving any administration was established. […] After the initiation of administration, the tumor diameters (major axis and minor axis) were measured twice a week, and the estimated tumor volume in each group was calculated according to the following formula. Subsequently, the average value of the estimated tumor volume for each group was calculated. […] The tumor growth inhibition ratio of each group compared with the control group was calculated using the following formula.
# [4] = tested on: cell strain PC9; experiment: Cell proliferation suppressing activity of osimertinib against cell strain PC9; format: cell-based, human; conditions: 0.01 μM or higher concentrations of osimertinib; 3rd day of treatment
# Description: as §1
# [5] = tested on: cell strain HCC827GR5 transplanted in nude mice; experiment: Antitumor effect on cell strain HCC827GR5 transplanted in nude mice; format: in vivo, nude mice (BALB/cAJcl-nu/nu); conditions: for Estimated tumor volume Average value: HER3-ADC (1) 10 mg/kg i.p. once a week, erlotinib 25 mg/kg oral six times a week; for Tumor growth inhibition ratio (%): compared with the control group, HER3-ADC (1) 10 mg/kg i.p., erlotinib 25 mg/kg oral
# Description: Cell strain HCC827GR5 was cultured in RPMI1640 medium (manufactured by Sigma-Aldrich Corp.) containing R10 medium (10% fetal bovine serum and 1% penicillin-streptomycin B (manufactured by Wako Pure Chemical Industries, Ltd.)) and erlotinib at a final concentration of 1 μM, subsequently the cells were detached by trypsin treatment and then collected. The number of cells in the cell suspension was measured, and the cells were suspended in R10 medium. The suspension was adjusted to have a concentration of 75,000,000 cells/mL. 100 μL of the cell suspension thus prepared (7,500,000 cells) was transplanted subcutaneously into the ventral region of 6-week old female nude mice (BALB/cAJcl-nu/nu), and then after 7 days from tumor transplantation, at which the average value of the estimated […] tumor volume of the transplanted tumors became […], grouping was carried out. Then, drug administration was initiated (day 0). HER3-ADC (1) was dissolved in phosphate buffer saline (PBS), and the solution was adjusted to have a concentration of 1 mg/mL. Erlotinib was dissolved in a hydroxypropylmethyl cellulose (HPMC) solution, and the solution was adjusted to have a concentration of 2.75 mg/mL. To the single-agent treatment groups of each drug, from day 0 to day 49 at the maximum, prepared HER3-ADC (1) was administered intraperitoneally once a week (7 times in total) at a dose of 200 μL/mouse (10 mg/kg), and prepared erlotinib was administered orally six times a week (19 in total) at a dose of 0.18 mL/mouse (25 mg/kg). On the other hand, to the combination treatment group, HER3-ADC (1) and erlotinib were administered from day 0 at the same dose in the same schedule as those of the single-agent treatment groups. A control group, which was not subjected to administration, was also established. For all of the groups, ten mice were used per group. After the initiation of administration, the tumor diameters (major axis and minor axis) were measured twice a week (on days 0, 3, 7, 10, 14, 17, 21, 24, 28, 31, 35, 38, 41, 45, and 49), and the estimated tumor volumes in each group were calculated according to the following formula. Subsequently, the average value of the estimated tumor volume for each group was calculated. Estimated tumor volume (Volume, mm^3)=major axis (mm)×minor axis (mm)^2÷2
# Furthermore, the tumor growth inhibition ratio of each group compared with the control group was calculated according to the following formula. Tumor growth inhibition ratio (%)=100−(average value of estimated tumor volume of treatment group÷average value of estimated tumor volume of control group×100)
# From the viewpoint of animal ethics, the measurement for the control and erlotinib single-agent treatment groups was terminated at the 21st day since the estimated tumor volume reached 1,200 to 1,500 mm^3. Along with this, the calculation of the tumor growth inhibition ratio (%) was made up to day 21.
# [6] = tested on: cell strain HCC827GR5; experiment: Cell proliferation suppressing activity (CellTiter Glo) against cell strain HCC827GR5; format: cell-based, human; conditions: 7th day of treatment
# Description: Cell strain HCC827GR5 was cultured in a medium obtained by adding gefitinib at a final concentration of 1 μM into the aforementioned medium.
# Cell strain HCC827GR5 was cultured in a medium obtained by adding gefitinib at a final concentration of 1 μM into RPMI1640 medium (manufactured by Sigma-Aldrich Corp.) containing R10 medium (10% fetal bovine serum and 1% penicillin-streptomycin B (manufactured by Wako Pure Chemical Industries, Ltd.)). After cell strain HCC827GR5 was cultured, the cells were detached by trypsin treatment and then collected. The number of cells in the cell suspension was measured, and the cells were suspended in RPMI1640 medium containing 10% fetal bovine serum. The suspension was adjusted to have a concentration of 100,000 cells/mL. 50 μL of each cell suspension was added to each well of SUMILON 96-well plate (manufactured by Sumitomo Bakelite Co., Ltd.) (5,000 cells/well), and culture was carried out. […] On the 7th day from the initiation of treatment, 50 μL of CellTiter Glo (manufactured by Promega Corp.) was added to each well and then the culture system was stirred for 2 minutes with a plate mixer. The plate was left to stand for 30 minutes under light-shielded conditions. An aliquot of 120 μL was taken from each well and was transferred onto a black microplate, and the luminescence values were measured with a luminometer.
# [7] = tested on: cell strain HCC827GR5; conditions: reported in K. Yonesaka et al., Oncogene (2016) 35, 878-886; cited from earlier work
compound,measurement,setting,value
CC[C@@]1(O)C(=O)OCc2c1cc1n(c2=O)Cc2c-1nc1cc(F)c(C)c3c1c2[C@@H](NC(=O)CO)CC3,topoisomerase I inhibitory activity,[1],confirmed to have a topoisomerase I inhibitory activity
"C=CC(=O)Nc1cc(Nc2nccc(-c3cn(C)c4ccccc34)n2)c(OC)cc1N(C)CCN(C)C [Osimertinib, osimertinib]",cell proliferation suppressing activity,[2],no cell proliferation suppressing activity was observed
same,Estimated tumor volume Average value,[3]; Day 0,64.2 mm^3
same,Tumor growth inhibition ratio (%),[3]; Day 0,5.3%
same,Estimated tumor volume Average value,[3]; Day 5,249.3 mm^3
same,Tumor growth inhibition ratio (%),[3]; Day 5,6.0%
same,Estimated tumor volume Average value,[3]; Day 8,271.7 mm^3
same,Tumor growth inhibition ratio (%),[3]; Day 8,5.8%
same,Estimated tumor volume Average value,[3]; Day 11,357.2 mm^3
same,Tumor growth inhibition ratio (%),[3]; Day 11,17.9%
same,Estimated tumor volume Average value,[3]; Day 16,533.4 mm^3
same,Tumor growth inhibition ratio (%),[3]; Day 16,6.7%
same,Estimated tumor volume Average value,[3]; Day 18,650.7 mm^3
same,Tumor growth inhibition ratio (%),[3]; Day 18,9.8%
same,Estimated tumor volume Average value,[3]; Day 21,710.6 mm^3
same,Tumor growth inhibition ratio (%),[3]; Day 21,27.7%
same,cell proliferation suppressing activity,[4],Strong cell proliferation suppressing activities
"C#Cc1cccc(Nc2ncnc3cc(OCCOC)c(OCCOC)cc23)c1 [Erlotinib, erlotinib]",Estimated tumor volume Average value,[5]; Day 0,124.5 mm^3
same,Tumor growth inhibition ratio (%),[5]; Day 0,2.7%
same,Estimated tumor volume Average value,[5]; Day 3,189.7 mm^3
same,Tumor growth inhibition ratio (%),[5]; Day 3,22.0%
same,Estimated tumor volume Average value,[5]; Day 7,347.5 mm^3
same,Tumor growth inhibition ratio (%),[5]; Day 7,26.0%
same,Estimated tumor volume Average value,[5]; Day 10,420.0 mm^3
same,Tumor growth inhibition ratio (%),[5]; Day 10,29.1%
same,Estimated tumor volume Average value,[5]; Day 14,747.8 mm^3
same,Tumor growth inhibition ratio (%),[5]; Day 14,14.5%
same,Estimated tumor volume Average value,[5]; Day 17,1117.9 mm^3
same,Tumor growth inhibition ratio (%),[5]; Day 17,20.4%
same,Estimated tumor volume Average value,[5]; Day 21,1225.5 mm^3
same,Tumor growth inhibition ratio (%),[5]; Day 21,21.1%
same,antitumor effect / efficacy (in words),"[5]; on Day 21, Dunnet's Multiple Comparison test p<0.001 for the significant effects",did not exhibit efficacy
same,cell proliferation suppressing activity (% Control),[6]; 1 μg/mL of erlotinib (so in the source),69.2%
same,cell proliferation suppressing activity (% Control),[6]; 3.3 μg/mL of erlotinib (so in the source),52.6%
same,cell proliferation suppressing activity (% Control),[6]; 10 μg/mL of erlotinib (so in the source),31.7%
same,sensitivity to alone therapy,[7],not to exhibit strong sensitivity
